# Several values for one entry are separate records, joined by “and”; a condition that tells them apart may be missing. Equal values may be shown once.
# Legend:
# Anas platyrhynchos = conditions: short-term; oral; feed; mortality
# Tagia sp. = conditions: acute; duration: 14 days; mortality
# Daphnia magna = conditions: chronic/long-term; duration: 21 days; reproduction
# Apis mellifera = conditions: acute; duration: 48 hours; oral; unspecified; mortality
smiles,measurement,setting,value
Nc1cnn(-c2ccccc2)c(=O)c1Cl [Chloridazon],LD50,"Rattus norvegicus; acute, oral, F, mortality",2140 mg/kg and 825 mg/kg
same,NOAEL,"Rattus norvegicus; chronic, duration: 2 years, body weight",13 mg/kg-day
same,NOAEL,"Rattus norvegicus; reproduction developmental, body weight",37 mg/kg-day
same,NOAEL,"Rattus norvegicus; reproduction developmental, reproduction",37 mg/kg-day
same,NOAEL,"Rattus norvegicus; subchronic, duration: 90 days, oral, body weight",21 mg/kg-day
same,LC50,Anas platyrhynchos,1110 mg/kg
same,LC50,Tagia sp.,> 1000 mg/kg
same,NOEC,Daphnia magna,10 mg/L
same,LD50,"Colinus virginianus; acute, oral, mortality",≥ 2000 mg/kg
same,NOAEL,"Colinus virginianus; reproduction developmental, F",21.8 mg/kg-day
same,LD50,Apis mellifera,> 200 µg/piece
same,LC50,"Oncorhynchus mykiss; acute, duration: 96 hours, mortality",41.3 µg/mL
same,NOEC,"Oncorhynchus mykiss; chronic/long-term, duration: 28 days, growth",3.16 mg/L
